From PubChem BioAssay AID2060612 (Molecular Pharmacology Branch, DTP, NCI, 2025)
Values joined by “and” are separate entries in the source; they are usually repeats but may differ in a detail not shown here. Equal values may be shown once. Blank lines part the entries; values can stand above or below the molecule they belong to.

Test system: 565232-114-T-J1-PDC complex spheroid viability
Experiment: Anticancer human tumor 565232-114-T-J1-PDC patient-derived bladder carcinoma cell line growth inhibition [CLK]
Details: for viability, T/C: stronger effect = lower value
Procedure, shortened: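 Patient-derived tumor cells grown as complex spheroids with HUVEC endothelial cells and mesenchymal stem cells, treated with drug combinations. Concentrations descend in half-log steps from near clinical Cmax, or from 10 microM if Cmax unknown.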

[1] = curve of first compound, second compound 0.0316 µM
[2] = curve of first compound, second compound 0.1 µM
[3] = curve of first compound, second compound 0.316 µM
[4] = curve of first compound, second compound 1 µM
[5] = curve of first compound, second compound 3.16 µM
[6] = curve of first compound, second compound 10 µM
[7] = second compound 0.0316 µM, first compound 0.0316 µM
[8] = second compound 0.0316 µM, first compound 0.1 µM
[9] = second compound 0.0316 µM, first compound 0.316 µM
[10] = second compound 0.0316 µM, first compound 1 µM
[11] = second compound 0.0316 µM, first compound 3.16 µM
[12] = second compound 0.0316 µM, first compound 10 µM
[13] = second compound 0.1 µM, first compound 0.0316 µM
[14] = second compound 0.1 µM, first compound 0.1 µM
[15] = second compound 0.1 µM, first compound 0.316 µM
[16] = second compound 0.1 µM, first compound 1 µM
[17] = second compound 0.1 µM, first compound 3.16 µM
[18] = second compound 0.1 µM, first compound 10 µM
[19] = second compound 0.316 µM, first compound 0.0316 µM
[20] = second compound 0.316 µM, first compound 0.1 µM
[21] = second compound 0.316 µM, first compound 0.316 µM
[22] = second compound 0.316 µM, first compound 1 µM
[23] = second compound 0.316 µM, first compound 3.16 µM
[24] = second compound 0.316 µM, first compound 10 µM
[25] = second compound 1 µM, first compound 0.0316 µM
[26] = second compound 1 µM, first compound 0.1 µM
[27] = second compound 1 µM, first compound 0.316 µM
[28] = second compound 1 µM, first compound 1 µM
[29] = second compound 1 µM, first compound 3.16 µM
[30] = second compound 1 µM, first compound 10 µM
[31] = second compound 3.16 µM, first compound 0.0316 µM
[32] = second compound 3.16 µM, first compound 0.1 µM
[33] = second compound 3.16 µM, first compound 0.316 µM
[34] = second compound 3.16 µM, first compound 1 µM
[35] = second compound 3.16 µM, first compound 3.16 µM
[36] = second compound 3.16 µM, first compound 10 µM
[37] = second compound 10 µM, first compound 0.0316 µM
[38] = second compound 10 µM, first compound 0.1 µM
[39] = second compound 10 µM, first compound 0.316 µM
[40] = second compound 10 µM, first compound 1 µM
[41] = second compound 10 µM, first compound 3.16 µM
[42] = second compound 10 µM, first compound 10 µM
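Also: spheroids exposed to compounds for 7 days before readout.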
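For viability, T/C in this document: 100% = DMSO vehicle wells with luminescence normalized to vehicle control.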

Compound: C=CC(=O)Nc1cc(Nc2nccc(-c3cn(C)c4ccccc34)n2)c(OC)cc1N(C)CCN(C)C + CNC(=O)c1ccc(Nc2nc(OC3CCCC3)c3c(-c4ccc5nc(C)oc5c4)c[nH]c3n2)c(OC)c1
IC50 [1]: > 300 nM
IC50 [2]: 105 nM
IC50 [3]: < 0.949 nM
IC50 [4]: < 0.949 nM
IC50 [5]: < 0.949 nM
IC50 [6]: < 0.949 nM
viability, T/C (second compound 0.0316 µM, first compound 0.000949 µM): 84.3%
viability, T/C (second compound 0.0316 µM, first compound 0.003 µM): 92.5%
viability, T/C (second compound 0.0316 µM, first compound 0.00949 µM): 75.5%
viability, T/C (second compound 0.0316 µM, first compound 0.03 µM): 86.7%
viability, T/C (second compound 0.0316 µM, first compound 0.0949 µM): 87.6%
viability, T/C (second compound 0.0316 µM, first compound 0.3 µM): 86.1%
viability, T/C (second compound 0.1 µM, first compound 0.000949 µM): 49.8%
viability, T/C (second compound 0.1 µM, first compound 0.003 µM): 53.3%
viability, T/C (second compound 0.1 µM, first compound 0.00949 µM): 51.1%
viability, T/C (second compound 0.1 µM, first compound 0.03 µM): 49.2%
viability, T/C (second compound 0.1 µM, first compound 0.0949 µM): 51.6%
viability, T/C (second compound 0.1 µM, first compound 0.3 µM): 40.5%
viability, T/C (second compound 0.316 µM, first compound 0.000949 µM): 28.5%
viability, T/C (second compound 0.316 µM, first compound 0.003 µM): 31.7%
viability, T/C (second compound 0.316 µM, first compound 0.00949 µM): 28.5%
viability, T/C (second compound 0.316 µM, first compound 0.03 µM): 31.1%
viability, T/C (second compound 0.316 µM, first compound 0.0949 µM): 35.7%
viability, T/C (second compound 0.316 µM, first compound 0.3 µM): 26.2%
viability, T/C (second compound 1 µM, first compound 0.000949 µM): 22.4%
viability, T/C (second compound 1 µM, first compound 0.003 µM): 27.3%
viability, T/C (second compound 1 µM, first compound 0.00949 µM): 21.9%
viability, T/C (second compound 1 µM, first compound 0.03 µM): 26.4%
viability, T/C (second compound 1 µM, first compound 0.0949 µM): 18.1%
viability, T/C (second compound 1 µM, first compound 0.3 µM): 22%
viability, T/C (second compound 3.16 µM, first compound 0.000949 µM): 18.5%
viability, T/C (second compound 3.16 µM, first compound 0.003 µM): 20.7%
viability, T/C (second compound 3.16 µM, first compound 0.00949 µM): 17.6%
viability, T/C (second compound 3.16 µM, first compound 0.03 µM): 21.4%
viability, T/C (second compound 3.16 µM, first compound 0.0949 µM): 15.2%
viability, T/C (second compound 3.16 µM, first compound 0.3 µM): 14.3%
viability, T/C (second compound 10 µM, first compound 0.000949 µM): 19.9%
viability, T/C (second compound 10 µM, first compound 0.003 µM): 18.8%
viability, T/C (second compound 10 µM, first compound 0.00949 µM): 16.1%
viability, T/C (second compound 10 µM, first compound 0.03 µM): 18.2%
viability, T/C (second compound 10 µM, first compound 0.0949 µM): 14%
viability, T/C (second compound 10 µM, first compound 0.3 µM): 11.7%

Compound: Nc1ccn(C2OC(CO)C(O)C2(F)F)c(=O)n1 (centres undefined) + CN1CCN(c2cc(C(=O)Nc3cc4cc(-c5cnn(C)c5)ccc4cn3)ccn2)CC1
IC50 [1]: 192 nM
IC50 [2]: 242 nM
IC50 [3]: < 31.6 nM
IC50 [4]: < 31.6 nM
IC50 [5]: < 31.6 nM
IC50 [6]: < 31.6 nM
viability, T/C [7]: 93.3%
viability, T/C [8]: 62.8%
viability, T/C [9]: 40.7%
viability, T/C [10]: 33.8%
viability, T/C [11]: 38%
viability, T/C [12]: 38.3%
viability, T/C [13]: 112%
viability, T/C [14]: 74.6%
viability, T/C [15]: 42.3%
viability, T/C [16]: 32.8%
viability, T/C [17]: 30.2%
viability, T/C [18]: 29.7%
viability, T/C [19]: 18%
viability, T/C [20]: 21.2%
viability, T/C [21]: 20.4%
viability, T/C [22]: 19%
viability, T/C [23]: 16.7%
viability, T/C [24]: 17.5%
viability, T/C [25]: 0.16%
viability, T/C [26]: 0.19%
viability, T/C [27]: 0.2%
viability, T/C [28]: 0.11%
viability, T/C [29]: 1.16%
viability, T/C [30]: 1.27%
viability, T/C [31]: 0.18%
viability, T/C [32]: 2.52%
viability, T/C [33]: 0.18%
viability, T/C [34]: 0.15%
viability, T/C [35]: 0.92%
viability, T/C [36]: 1.45%
viability, T/C [37]: 0.18%
viability, T/C [38]: 1.54%
viability, T/C [39]: 0.18%
viability, T/C [40]: 0.17%
viability, T/C [41]: 2.1%
viability, T/C [42]: 4.24%

Compound: COc1c(OCCCN2CCOCC2)ccc2c3n(c(=NC(=O)c4cnc(N)nc4)nc12)CCN3
viability, T/C (compound 0.00316 µM): 97.1%
viability, T/C (compound 0.01 µM): 78.6%
viability, T/C (compound 0.0316 µM): 101%
viability, T/C (compound 0.1 µM): 103%
viability, T/C (compound 0.316 µM): 120%
viability, T/C (compound 1 µM): 66.1%
IC50 (curve of compound): > 1000 nM

Compound: CC1(C)CCC(CN2CCN(c3ccc(C(=O)NS(=O)(=O)c4ccc(NCC5CCOCC5)c([N+](=O)[O-])c4)c(Oc4cnc5[nH]ccc5c4)c3)CC2)=C(c2ccc(Cl)cc2)C1 + CN1CCN(c2cc(C(=O)Nc3cc4cc(-c5cnn(C)c5)ccc4cn3)ccn2)CC1
IC50 [1]: 9100 nM
IC50 [2]: 8010 nM
IC50 [3]: < 31.6 nM
IC50 [4]: < 31.6 nM
IC50 [5]: < 31.6 nM
IC50 [6]: < 31.6 nM
viability, T/C [7]: 104%
viability, T/C [8]: 89%
viability, T/C [9]: 98.6%
viability, T/C [10]: 95.9%
viability, T/C [11]: 79.5%
viability, T/C [12]: 47.4%
viability, T/C [13]: 88.2%
viability, T/C [14]: 79.3%
viability, T/C [15]: 95.1%
viability, T/C [16]: 119%
viability, T/C [17]: 82.2%
viability, T/C [18]: 42.3%
viability, T/C [19]: 13.7%
viability, T/C [20]: 18.3%
viability, T/C [21]: 18.5%
viability, T/C [22]: 17.6%
viability, T/C [23]: 22.8%
viability, T/C [24]: 11.4%
viability, T/C [25]: 1.1%
viability, T/C [26]: 0.27%
viability, T/C [27]: 0.22%
viability, T/C [28]: 0.2%
viability, T/C [29]: 0.21%
viability, T/C [30]: 0.31%
viability, T/C [31]: 0.35%
viability, T/C [32]: 2.16%
viability, T/C [33]: 1.93%
viability, T/C [34]: 0.23%
viability, T/C [35]: 1.8%
viability, T/C [36]: 1.49%
viability, T/C [37]: 0.16%
viability, T/C [38]: 1.55%
viability, T/C [39]: 1.55%
viability, T/C [40]: 0.15%
viability, T/C [41]: 0.15%
viability, T/C [42]: 0.8%

Second part, led by results:

IC50 (curve of compound): > 10000 nM
Compound: CC(CO)NC(=O)c1cc(-c2ccc(Cl)cc2)nn(-c2cnn(C)c2)c1=O (centres undefined)
viability, T/C (compound 0.0316 µM): 97.3% and 115%
viability, T/C (compound 0.1 µM): 85.3% and 77.5%
viability, T/C (compound 0.316 µM): 83.9% and 109%
viability, T/C (compound 1 µM): 90.8% and 89.4%
viability, T/C (compound 3.16 µM): 94.1% and 97.8%
viability, T/C (compound 10 µM): 90.5% and 91.3%

IC50 (compound alone, run of 07/31/2023): 212 nM [middle of 8 runs]
Compound: CN1CCN(c2cc(C(=O)Nc3cc4cc(-c5cnn(C)c5)ccc4cn3)ccn2)CC1
viability, T/C (compound 0.0316 µM): 97.6% [middle of 9 runs]
viability, T/C (compound 0.1 µM): 106% [middle of 9 runs]
viability, T/C (compound 0.316 µM): 19.9% [middle of 9 runs]
viability, T/C (compound 1 µM): 1.63% [middle of 9 runs]
viability, T/C (compound 3.16 µM): 0.86% [middle of 9 runs]
viability, T/C (compound 10 µM): 0.47% [middle of 9 runs]

IC50 (curve of compound): 436 nM and 319 nM
Compound: NC(=O)C(=Cn1cnc(-c2cc(C(F)(F)F)cc(C(F)(F)F)c2)n1)c1cncnc1
viability, T/C (compound 0.00949 µM): 99% and 110%
viability, T/C (compound 0.03 µM): 99.6% and 106%
viability, T/C (compound 0.0949 µM): 111% and 105%
viability, T/C (compound 0.3 µM): 71.5% and 52.6%
viability, T/C (compound 0.949 µM): 6.85% and 2.59%
viability, T/C (compound 3 µM): 1.92% and 0.42%
